Data published in publication PMC10542788, “Discovery of a cystathionine γ-lyase (CSE) selective inhibitor targeting active-site pyridoxal 5′-phosphate (PLP) via Schiff base formation” (Scientific Reports, 2023).

How the values were obtained:
rCBS = biological target: T1, rCBS (Rattus norvegicus, UniProt P32232); test: rCBS inhibition, HSip-1 fluorescence; type: biochemical; conditions: 30 µM
T1 construct: GST (N); HA (C); made in house; host or cells: E. coli BL21
T1 sequence (P32232 1-561): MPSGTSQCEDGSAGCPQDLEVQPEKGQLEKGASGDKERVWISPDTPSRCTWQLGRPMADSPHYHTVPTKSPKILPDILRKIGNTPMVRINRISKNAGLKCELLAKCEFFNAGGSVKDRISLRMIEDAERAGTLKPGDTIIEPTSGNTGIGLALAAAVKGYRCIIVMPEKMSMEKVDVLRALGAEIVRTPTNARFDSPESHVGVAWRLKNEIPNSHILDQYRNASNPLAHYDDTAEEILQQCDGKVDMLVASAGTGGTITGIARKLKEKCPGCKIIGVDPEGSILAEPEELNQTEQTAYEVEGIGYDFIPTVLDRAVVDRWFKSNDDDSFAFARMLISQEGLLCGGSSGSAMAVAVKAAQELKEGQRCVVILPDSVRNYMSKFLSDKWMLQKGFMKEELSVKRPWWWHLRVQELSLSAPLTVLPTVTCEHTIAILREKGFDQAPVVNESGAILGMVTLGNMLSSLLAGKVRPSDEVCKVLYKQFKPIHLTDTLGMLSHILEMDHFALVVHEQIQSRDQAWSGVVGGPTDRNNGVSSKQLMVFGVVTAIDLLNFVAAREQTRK
Procedure: The selectivity of 1, 2 and PAG for rCSE over other RSS-producing enzymes, CBS and 3MST, was examined (Fig. 4a). CBS is a PLP-dependent enzyme, like CSE, and produces H2S from cysteine and homocysteine as substrates. 3MST is also an H2S-producing enzyme, but is not PLP-dependent and uses 3-mercaptopyruvate as a substrate. The amount of H2S produced by CBS or 3MST was evaluated in the presence or absence of the inhibitor by measuring the fluorescence intensity of HSip-1. […] We also examined the inhibitory activity towards two other PLP-dependent enzymes, MGL and ALT. MGL metabolizes L-methionine to α-ketobutyric acid, methanethiol and ammonia, and is inhibited by PAG[14]. MGL also produces H2S from homocysteine as a substrate, and this activity of MGL can be measured by fluorescence detection with HSip-1. […] The enzymatic activity of ALT can be assessed by means of a coupled assay using the reduction of pyruvate to L-lactate with lactate dehydrogenase and NADH and measuring the change in absorption of NADH.
10 µL of 2.5 mM cysteine and 2.5 mM homocysteine in 30 mM HEPES (pH 7.4) was added to 10 µL of a solution containing 20 µg/mL rCBS, 50 µM PLP, 100 µM SAM, 1 µM HSip-1, 0.005% tween 20, 0.5% DMSO and various concentrations of the inhibitors. The mixture was incubated at 37 °C for 2 h and the fluorescence intensity of HSip-1 was measured with a microplate reader.

rat CSE (rCSE) = biological target: T2, rat CSE (rCSE) (Rattus norvegicus, UniProt P18757); test: rCSE inhibition, H2S detection by fluorescence of HSip-1; type: biochemical
T2 construct: His-tag (C); made in house; host or cells: E. coli BL21
T2 sequence (P18757 whole entry): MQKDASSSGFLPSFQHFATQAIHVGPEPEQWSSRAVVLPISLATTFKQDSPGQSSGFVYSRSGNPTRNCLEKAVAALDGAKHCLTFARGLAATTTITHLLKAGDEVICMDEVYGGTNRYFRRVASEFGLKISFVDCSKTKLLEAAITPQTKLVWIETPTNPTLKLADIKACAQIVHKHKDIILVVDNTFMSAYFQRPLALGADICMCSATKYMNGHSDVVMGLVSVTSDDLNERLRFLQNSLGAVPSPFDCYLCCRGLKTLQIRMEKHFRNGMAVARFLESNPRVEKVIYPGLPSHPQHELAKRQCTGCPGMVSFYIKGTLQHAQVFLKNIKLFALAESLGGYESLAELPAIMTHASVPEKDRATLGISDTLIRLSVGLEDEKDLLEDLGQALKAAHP
Procedure: The developed assay system employs a plate reader to detect H2S production by CSE as a fluorescence signal in a solution containing 30 μg/mL rat CSE (rCSE), 1 μM HSip-1, 100 μM pyridoxal-5′-phosphate (PLP) and 1.5 mM cysteine (a substrate) in a 384-well plate format (Fig. 1b). A large amount of rCSE was expressed in E. coli and purified on a Ni Sepharose 6 Fast Flow module. We then performed screening of a chemical library consisting of 161,600 compounds (from the Drug Discovery Initiative, the University of Tokyo) for CSE inhibitors (Fig. 1c). […] Then, a confirmation test for repeatability (n = 4) of the 160 compounds selected in the 1st screening was performed to exclude false-positives. In this step, we also excluded cysteine-reactive compounds by changing the addition order of the rCSE and cysteine (substrate) solutions. In other words, in the 1st screening, the enzyme solution was firstly added to each library compound, while in the confirmation test for repeatability of the hit compounds in the 1st screening, we firstly added the cysteine solution to each compound. This enabled us to identify and exclude cysteine-reactive compounds, based on their reaction with the added cysteine. These procedures left 80 compounds showing both more than 40% inhibition at 10 µM and similar % inhibition of rCSE irrespective of the addition order of the rCSE and cysteine solutions. In the 2nd screening, we examined the reactivity of these 80 compounds with H2S using an H2S donor[17] to exclude H2S-reactive compounds. […] In this assay, we selected 13 compounds which were non-reactive to H2S, but one was relatively unstable and two of them were the same compound, so that 11 compounds were finally selected. These compounds included some hydrazine and hydrazide derivatives, so we performed titration assay of the selected 11 compounds together with 9 commercially available hydrazine and hydrazide compounds (Supplementary Fig. S3) and calculated the half-maximal (50%) inhibitory concentration (IC50) of each compound.
The fluorescence intensity of HSip-1 was measured (λex = 490 nm, λem = 510 nm) with a microplate reader (EnVision, Perkin Elmer).
10 µL of 1.5 mM cysteine solution in 30 mM HEPES (pH 7.4) was added to 10 µL of solution containing 30 µg/mL rCSE, 100 µM PLP, 1 µM HSip-1, 0.005% tween 20 and the test compound (0.5% DMSO as a cosolvent). The mixture was incubated at 25 °C for 3 h and the fluorescence intensity of HSip-1 was measured with a microplate reader.

## NNC(=O)C(N)=O [Compound 1, oxamic hydrazide]
rCBS
  selectivity for CSE over CBS: high selectivity for CSE over CBS
Rat CSE (rCSE); fluorescence assay with HSip-1, 1.5 mM cysteine, 100 μM PLP, mean ± S.E., read-out: IC50, inhibitory activity towards rCSE
  IC50: 13 ± 1 µM
Rat CSE (rCSE); versus CBS, 3MST, MGL and ALT
  selectivity for CSE among the compounds examined (1, 2, PAG): highest selectivity for CSE
